These results are taken from ChEMBL document CHEMBL4017527, “Are We There Yet? Applying Thermodynamic and Kinetic Profiling on Embryonic Ectoderm Development (EED) Hit-to-Lead Program” (J Med Chem, 2017).

The target of assay [1] is T1, Polycomb protein EED (Homo sapiens, UniProt O75530). Kind of assay: Binding affinity to GST tagged EED (unknown origin) after 1 hr by OG(488) probe based TR-FRET assay.
In assay [2] the target is T1, Polycomb protein EED. Kind of assay: Binding affinity to His tagged human EED (77 to 441 residues) expressed in Escherichia coli BL21(DE3)-T1R by ITC method. To be noted: read-out: Kd(app).
Assay [3] addresses T1, Polycomb protein EED. Nature of the assay: Binding affinity to biotin labelled human EED (78 to 441 residues) by SPR assay.

T1 sequence (O75530 whole entry, the tested form may be a part): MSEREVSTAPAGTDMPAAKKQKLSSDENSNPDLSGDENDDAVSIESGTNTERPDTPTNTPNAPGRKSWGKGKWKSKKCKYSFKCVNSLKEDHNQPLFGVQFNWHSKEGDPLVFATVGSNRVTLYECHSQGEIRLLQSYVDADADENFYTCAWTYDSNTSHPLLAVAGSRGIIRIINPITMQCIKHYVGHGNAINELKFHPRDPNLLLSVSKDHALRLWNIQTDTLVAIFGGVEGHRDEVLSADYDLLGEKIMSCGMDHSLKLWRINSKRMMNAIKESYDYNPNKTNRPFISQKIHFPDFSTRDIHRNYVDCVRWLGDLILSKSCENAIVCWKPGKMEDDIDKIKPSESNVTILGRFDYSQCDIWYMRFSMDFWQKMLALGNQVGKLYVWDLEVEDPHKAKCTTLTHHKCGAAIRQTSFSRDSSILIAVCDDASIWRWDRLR

Compound `CC(=O)N1CCN(c2ccc([C@H]3CN(C4CCc5cccc(F)c54)C[C@@H]3N(C)C)cc2)CC1` (some centres not stated) gave a Ki in assay [1] of 0.7 nM. For the same compound, the Kd in assay [2] was found to be 2100 nM; in assay [3], 4 nM.
The compound `CN(C)c1cc(N2CCc3ccccc3C2)ccn1` registered a Ki in assay [1] of 680 nM. Moreover, the Kd in assay [2] was determined as 2500 nM.
Take `CN(C)[C@@H]1CN(Cc2c(F)cccc2Br)C[C@H]1c1cn(C)c2ccccc12`: the Ki in assay [1] came out at 80 nM. The Kd was determined as 370 nM in assay [2] and 3100 nM in assay [3].
For `CC(=O)N1CCN(c2ccc([C@H]3CN([C@@H]4CCc5cccc(F)c54)C[C@@H]3N(C)C)cc2)CC1` the same measures were 3 nM, 1140 nM and 100 nM.
In the same order, the values of `Cc1cccc(F)c1CN1C[C@H](c2ccc(S(C)(=O)=O)cc2)[C@@H](N(C)C)C1` are 10 nM, 30 nM and 140 nM.
In assay [1], `COc1ccccc1N1CCN(C(=O)c2ccccc2S(C)(=O)=O)CC1` returned a Ki of 1500 nM. For the same compound, the Kd in assay [3] is 13400 nM.
On to `CN(C)[C@H]1CN(Cc2c(F)cccc2Br)C[C@@H]1c1cn(C)c2ccccc12`, for which, in assay [1], the Ki was in the range of 10 to 20 nM. Besides, the results for the Kd in assay [2] and in assay [3] were 90 nM and 150 to 310 nM, respectively.
As for `CC(=O)N1CCN(c2ccc([C@@H]3CN([C@@H]4CCc5cccc(F)c54)C[C@H]3N(C)C)cc2)CC1`, the Ki in assay [1] was determined as 18 nM. The Kd was found to be 110 nM in assay [2] and 200 nM in assay [3].
In assay [1], `COc1ccc([C@H]2CN(Cc3c(C)cccc3F)C[C@@H]2N(C)C)cc1OC` had a Ki of 12 nM. Besides, the Kd in assay [3] amounted to 210 nM.
In the same order, the values of `COc1ccc([C@H]2CN(Cc3c(F)cccc3Br)C[C@@H]2N(C)C)cc1OC` are 18 nM and 300 nM.
Consider `CN(C)[C@H]1CN([C@H]2CCc3cccc(F)c32)C[C@@H]1c1cn(C)c2ccccc12`, for which the Kd in assay [2] worked out at 10 nM.
On to `CC(=O)N1CCN(c2ccc([C@H]3CN(Cc4c(C)cccc4F)C[C@@H]3N(C)C)cc2)CC1`, for which, in assay [1], affinity was put at a Ki of 3 nM. The compound also came in with a Kd in assay [3] of 20 nM.
`CC(=O)N1CCN(c2ccc([C@H]3CN([C@H]4CCc5cccc(F)c54)C[C@@H]3N(C)C)cc2)CC1` displayed a Ki in assay [1] of 0.3 nM. In addition, the results for the Kd in assay [2] and in assay [3] were 10 nM and 1 nM, respectively.
As to `CN(C)[C@H]1CN(Cc2c(F)cccc2Br)C[C@@H]1c1ccccc1`, in assay [1], the affinity, expressed as Ki, was 110 nM. This compound returned a Kd in assay [3] of 4800 nM.
With `Cc1cccc(F)c1CN1C[C@H](c2cn(C)c3ccccc23)[C@@H](N(C)C)C1`, the Kd in assay [2] was determined as 6 nM.
In turn, `CC(=O)N1CCN(c2ccc([C@@H]3CN([C@H]4CCc5cccc(F)c54)C[C@H]3N(C)C)cc2)CC1` registered a Ki in assay [1] of 42 nM. Besides, the Kd in assay [2] was 2200 nM; in assay [3], 290 nM.
As for `CN(C)[C@H]1CN(Cc2c(F)cccc2Br)C[C@@H]1c1ccccn1`, the Ki in assay [1] worked out at 450 nM. This compound yielded a Kd in assay [3] of 9800 nM.
Regarding `Cc1cccc(F)c1CN1C[C@@H](N(C)C)[C@H](c2ccc(S(C)(=O)=O)cc2)C1`, the affinity in assay [1] corresponds to a Ki of 290 nM. Further, the Kd was 940 nM in assay [2] and 1400 nM in assay [3].
`CN(C)[C@H]1CN(Cc2c(F)cc(O)cc2Br)C[C@@H]1c1cn(C)c2ccccc12`: in assay [1], the Ki turned out to be 8 nM. The compound further returned a Kd in assay [3] of 61 nM.
In the same order, the values of `COc1ccc([C@H]2CN(C3CCc4cccc(F)c43)C[C@@H]2N(C)C)cc1OC` (some centres not stated) are 3 nM and 43 nM.
The compound `CN(C)[C@H]1CN(Cc2c(F)cccc2Br)C[C@@H]1c1ccc(O)cc1` displayed a Ki in assay [1] of 91 nM. Besides, the Kd in assay [3] amounted to 2600 nM.
In assay [1], `c1ccc2c(c1)CCN(c1ccncc1)C2` yielded a Ki of 950 nM. Moreover, the figures for the Kd in assay [2] and in assay [3] were 5200 nM and 22000 nM, respectively.
